Reference: paper PMC3297008, “Novel Marine Phenazines as Potential Cancer Chemopreventive and Anti-Inflammatory Agents” (Marine Drugs, 2012)

Key:
COX-2 mRNA expression = COX-2 mRNA expression in LPS-treated RAW 264.7 cells (real time quantitative PCR); format: cell-based; details: 50 µM
From the text: (§1) Figure 2 Effect of phenazines on COX-2 (black) and iNOS (gray) mRNA expression in RAW 264.7 cells. Total RNA was isolated using the TRIZOL® Reagent method (Invitrogen) from RAW 264.7 cells (2 × 10^5 cells/well) after treatment with samples. cDNA was synthesized using the RT^2 First Strand Kit (C-03, SA Biosciences) protocol. cDNA was used for quantitative real time PCRs with fluorescent Power SyBR® Green PCR master mix (Applied Biosystems), employing GAPDH, iNOS, COX-2 specific primers, and a 7300 Real Time PCR System (Applied Biosystems). The results were derived from two independent RNA preparations employing identical triplicates in each analysis and quantitated using GAPDH as the internal control, following the manufacturer’s instructions. (A) GAPDH standard curve for quantitation of iNOS and COX-2 expression; (B) Levels of COX-2 (black) and iNOS (gray) mRNA expression. The concentration and duration of treatment had no significant effect on the viability of Raw 264.7 cells.
(§2) Total mRNA samples were isolated, and cDNA was amplified with specific primers, using GAPDH as housekeeping gene. LPS induced the expression of COX-2 and iNOS mRNA by approximately 11- and 24-fold, respectively. […]
(§3) RAW 264.7 cells (2 × 10^5 cells/well) were treated with test samples and total RNA was isolated with TRIZOL® Reagent (Invitrogen). […] The results were derived from two independent RNA preparations employing identical triplicates in each analysis and quantified using GAPDH as the internal control, following the manufacturer’s instructions. The fluorescence intensity (Rn) corresponding to the cycle of threshold value (Ct) is used to quantitate a given mRNA, employing the GAPDH standard curve (Figure 3A). The equation Y = −3.9408 X + 31.791 was used to quantify the relative mRNA content, where Y represents the number of cycles corresponding to the Ct (i.e., fluorescence intensity for a given mRNA species), and X represents the log copy number (C0) from which the relative content of mRNA was quantitated. […]

[1] = test system: NO production in LPS-induced RAW 264.7 cells; assay: LPS-induced NO production in RAW 264.7 cells (Griess reagent); details: for NO % inhibition (50 µM): LPS-induced RAW 264.7 cells; for inhibition at 50 µM / IC50: Mus musculus; for inhibition at 50 µM: RAW264.7, read-out: NO % inhibition (50 µM), LPS-induced RAW 264.7 cells, 50 µM; for IC50: RAW264.7, read-out: NO IC50
Protocol: The amount of nitrite was measured using the Griess reagent to assess the NO production [47, 48]. […] The cells were treated with various concentrations of compounds dissolved in phenol-red free DMEM for 30 min followed by 1 μg/mL of LPS treatment for 24 h. […] The standard curve was created by using known concentrations of sodium nitrite.

human COX-2 = molecular target: T1, human COX-2 (Homo sapiens, UniProt P35354); assay: COX-2 inhibition assay (LC-MS/MS of PGE2); format: biochemical; details: for IC50: human COX-2; for Selectivity COX-1/COX-2: ratio of the IC50 values (COX-1/COX-2)
T1 sequence (P35354 18-604): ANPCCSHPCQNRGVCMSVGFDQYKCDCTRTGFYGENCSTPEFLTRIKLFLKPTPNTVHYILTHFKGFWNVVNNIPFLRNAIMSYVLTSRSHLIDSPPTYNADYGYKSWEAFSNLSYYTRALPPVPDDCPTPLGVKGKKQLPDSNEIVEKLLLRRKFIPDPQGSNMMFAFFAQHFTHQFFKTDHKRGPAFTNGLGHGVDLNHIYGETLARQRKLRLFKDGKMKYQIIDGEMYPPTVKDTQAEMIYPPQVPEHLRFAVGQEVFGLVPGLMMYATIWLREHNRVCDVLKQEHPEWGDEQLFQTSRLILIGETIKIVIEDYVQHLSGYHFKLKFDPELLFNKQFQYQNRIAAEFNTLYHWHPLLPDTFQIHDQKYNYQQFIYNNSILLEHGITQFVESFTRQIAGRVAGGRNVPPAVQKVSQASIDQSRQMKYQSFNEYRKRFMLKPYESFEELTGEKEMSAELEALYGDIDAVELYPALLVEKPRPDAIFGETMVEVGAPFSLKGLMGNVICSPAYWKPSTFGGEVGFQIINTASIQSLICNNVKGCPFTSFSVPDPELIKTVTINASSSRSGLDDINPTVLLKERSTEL
Protocol: Each COX reaction was initiated by adding 20 µL of arachidonic acid in Tris-HCl (pH 8.0) buffer to give a final concentration of 5 µM. The reaction was terminated after 2 min by adding 20 µL of 2.0 M HCl. The surrogate standard PGE2-d4 was added to correct for errors or degradation during sample handling and for variation in injection volume or instrument response during LC-MS/MS. After 30 min, PGE2 and its surrogate standard were extracted from each incubation mixture using 800 µL of hexane/ethyl acetate (50:50, v/v). The organic phase was removed, evaporated to dryness, and reconstituted in 100 µL methanol/water (50:50, v/v) for analysis using LC-MS/MS with an Applied Biosystems AP4000 triple quadrupole mass spectrometer as described previously. The concentration of PGE2 in each sample was measured using LC-MS/MS, and the percent of COX inhibition by each test solution was determined by comparing the amount of PGE2 produced in the experiment with that produced in the negative control incubation. For IC50 value determination, 12 different concentrations of each inhibitor were assayed three times. The IC50 value of each inhibitor toward COX-1 or COX-2 was determined by plotting and analyzing the inhibition curve data using Graph Pad Prism 5 software. The selectivity of each inhibitor was calculated as the ratio of the IC50 values (COX-1/COX-2).

RAW 264.7 cells = assay: Cell viability (SRB) of RAW 264.7 cells in the NO assay; format: cell-based; details: 50 µM
iNOS mRNA expression = iNOS mRNA expression in LPS-treated RAW 264.7 cells (real time quantitative PCR); format: cell-based; details: 50 µM
From the text: as §1, §2, §3

SMILES: CC1=C(Cn2c3ccc(Br)c(=O)c-3nc3ccccc32)CCC(C)(C)C1 [Phenazine 1]
- suppression of COX-2 mRNA expression (COX-2 mRNA expression): 40%
- NO % inhibition (50 µM) [1]: 40.1 ± 5%
- inhibition at 50 µM [1]: 40%
- IC50 [1]: > 48.6 µM
- IC50 (human COX-2): 4 ± 0.41 µM
- enhancement of inhibition of the catalytic activity of COX-2 (human COX-2; phenazine 1 compared with lavanducyanin): ~10 fold
- Selectivity COX-1/COX-2 (human COX-2): 2.75
- Selectivity COX-1/COX-2 (human COX-2; listed as phenazine 1): approximately 3
- NO % cell survival (RAW 264.7 cells): 68.9 ± 3.8%
- suppression of iNOS mRNA expression (iNOS mRNA expression): 21%

SMILES: CC(C)=CCn1c2ccc(Br)c(=O)c-2nc2ccccc21 [Phenazine 2]
- suppression of COX-2 mRNA expression (COX-2 mRNA expression): 50%
- NO % inhibition (50 µM) [1]: 98.1 ± 0.5%
- inhibition at 50 µM [1]: > 90%
- IC50 [1]: 15.1 ± 2.7 µM
- IC50 (human COX-2): 7.2 ± 0.13 µM
- Selectivity COX-1/COX-2 (human COX-2): 0.78
- NO % cell survival (RAW 264.7 cells): 56.0 ± 5.1%
- suppression of iNOS mRNA expression (iNOS mRNA expression): 43%

SMILES: CC1=C(Cn2c3cccc(=O)c-3nc3ccccc32)CCC(C)(C)C1 [Lavanducyanin 3, lavanducyanin]
- suppression of COX-2 mRNA expression (COX-2 mRNA expression): 51%
- NO % inhibition (50 µM) [1]: 97 ± 0.7%
- inhibition at 50 µM [1]: > 90%
- IC50 [1]: 8 ± 0.39 µM
- IC50 (human COX-2): 34 ± 1.1 µM
- Selectivity COX-1/COX-2 (human COX-2): 0.88
- NO % cell survival (RAW 264.7 cells): 58.3 ± 4.6%
- suppression of iNOS mRNA expression (iNOS mRNA expression): 46%
